For one test, the species on record is Homo sapiens. Nature of the test: Compound was tested for the inhibition of 4 uM ADP-induced platelet aggregation by using human platelet rich plasma. The format is functional.
Test [1] deals with T1, Prostacyclin receptor (Homo sapiens, UniProt P43119). As to the kind of experiment: Compound was tested for prostacyclin (PGI-2) binding by displacement of [3H]iloprost from human platelets using conventional ligand binding assay. On the technique in general: In a radioligand displacement assay an active substance lowers the binding of a labelled ligand.
Test [2] deals with T1, Prostacyclin receptor. Nature of the test: Compound was tested for prostacyclin (PGI-2) binding by displacement of [3H]iloprost from human platelets. The settings on record: concentration not given here.

T1 sequence (P43119 whole entry): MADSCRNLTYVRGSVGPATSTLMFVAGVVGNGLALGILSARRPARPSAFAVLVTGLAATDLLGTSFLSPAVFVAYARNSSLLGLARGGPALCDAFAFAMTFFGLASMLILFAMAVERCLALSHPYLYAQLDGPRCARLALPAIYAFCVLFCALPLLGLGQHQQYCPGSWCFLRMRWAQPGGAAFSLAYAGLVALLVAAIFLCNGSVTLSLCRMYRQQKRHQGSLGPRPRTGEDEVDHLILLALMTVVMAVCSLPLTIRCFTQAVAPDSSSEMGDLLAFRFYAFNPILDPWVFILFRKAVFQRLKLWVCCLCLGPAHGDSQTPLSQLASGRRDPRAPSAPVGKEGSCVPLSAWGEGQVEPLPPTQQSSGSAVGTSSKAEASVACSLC

In the case of `O=C(O)COc1cccc2c1CCCC2CCCCOC(c1ccccc1)c1ccccc1` (stereo unspecified), the IC50 in the test listed under Homo sapiens turned out to be 11000 nM; on Prostacyclin receptor [1], 4200 nM.

`O=C(O)COc1cccc2c1CCCC2CCCOC(c1ccccc1)c1ccccc1` (stereo unspecified): the IC50 in the test filed under Homo sapiens is 450 nM; at Prostacyclin receptor [1], 460 nM.

Consider `O=C(O)COc1cccc2c1CCC(CC(=O)NN(c1ccccc1)c1ccccc1)C2` (stereo unspecified), for which the IC50 in the test filed under Homo sapiens turned out to be 150 nM. That is a sub-micromolar value.

Turning to `O=C(O)COc1cccc2c1CCCC2CCC(=O)NN(c1ccccc1)c1ccccc1` (stereo unspecified), the IC50 in the test filed under Homo sapiens amounted to 57 nM; at Prostacyclin receptor [1], 10 nM.

Take `O=C(O)COc1cccc2c1CCC(CCCOC(c1ccccc1)c1ccccc1)C2` (stereo unspecified): the IC50 was over 20000 nM in the test filed under Homo sapiens and over 10000 nM on Prostacyclin receptor [1]. On Prostacyclin receptor [2], this compound gave an inhibition of 25%.

For the compound `O=C(O)COc1cccc2c1CCC(CON=C(c1ccccc1)c1ccccc1)C2` (stereo unspecified), the IC50 in the test filed under Homo sapiens and at Prostacyclin receptor [1] was 2400 nM each time.

Regarding `O=C(O)COc1cccc2c1CCCC2CCON=C(c1ccccc1)c1ccccc1` (stereo unspecified), the IC50 came out at 250 nM in the test filed under Homo sapiens and 210 nM at Prostacyclin receptor [1].

As to `O=C(O)COc1cccc2c1CCC(CCOC(c1ccccc1)c1ccccc1)C2` (stereo unspecified), the IC50 in the test filed under Homo sapiens was over 20000 nM; at Prostacyclin receptor [1] it was 8000 nM.

As a reminder, the IC50 is the point on the concentration scale where inhibition reaches its midpoint. Higher therefore signals a need for much substance. What is called inhibition is the change of the read-out against control, counted positive when it falls. The low end stands for little suppression, the high end for strong suppression.

For the origin of these results see ChEMBL document CHEMBL1128148, “Molecular design of novel PGI2 agonists without PG skeleton. III” (Bioorg Med Chem Lett, 1995).
